Reference: patent publication US8202879B2, “Quinazoline derivatives having tyrosine kinase inhibitory activity” (Shionogi & Co., Ltd., priority 2005, dated 2012)
Like-named read-outs stand apart in the source and are kept apart here.

Assays:
[1] = biological target: T1, EGFR (Homo sapiens, UniProt P00533); experiment: Enzyme inhibitory activity on EGFR (time resolution fluorescence, biotinylated poly-Glu-Tyr substrate); type: biochemical
T1 construct: purchased Carna Biosciences, Inc; host or cells: insect cell expression system
T1 sequence (P00533 25-1210): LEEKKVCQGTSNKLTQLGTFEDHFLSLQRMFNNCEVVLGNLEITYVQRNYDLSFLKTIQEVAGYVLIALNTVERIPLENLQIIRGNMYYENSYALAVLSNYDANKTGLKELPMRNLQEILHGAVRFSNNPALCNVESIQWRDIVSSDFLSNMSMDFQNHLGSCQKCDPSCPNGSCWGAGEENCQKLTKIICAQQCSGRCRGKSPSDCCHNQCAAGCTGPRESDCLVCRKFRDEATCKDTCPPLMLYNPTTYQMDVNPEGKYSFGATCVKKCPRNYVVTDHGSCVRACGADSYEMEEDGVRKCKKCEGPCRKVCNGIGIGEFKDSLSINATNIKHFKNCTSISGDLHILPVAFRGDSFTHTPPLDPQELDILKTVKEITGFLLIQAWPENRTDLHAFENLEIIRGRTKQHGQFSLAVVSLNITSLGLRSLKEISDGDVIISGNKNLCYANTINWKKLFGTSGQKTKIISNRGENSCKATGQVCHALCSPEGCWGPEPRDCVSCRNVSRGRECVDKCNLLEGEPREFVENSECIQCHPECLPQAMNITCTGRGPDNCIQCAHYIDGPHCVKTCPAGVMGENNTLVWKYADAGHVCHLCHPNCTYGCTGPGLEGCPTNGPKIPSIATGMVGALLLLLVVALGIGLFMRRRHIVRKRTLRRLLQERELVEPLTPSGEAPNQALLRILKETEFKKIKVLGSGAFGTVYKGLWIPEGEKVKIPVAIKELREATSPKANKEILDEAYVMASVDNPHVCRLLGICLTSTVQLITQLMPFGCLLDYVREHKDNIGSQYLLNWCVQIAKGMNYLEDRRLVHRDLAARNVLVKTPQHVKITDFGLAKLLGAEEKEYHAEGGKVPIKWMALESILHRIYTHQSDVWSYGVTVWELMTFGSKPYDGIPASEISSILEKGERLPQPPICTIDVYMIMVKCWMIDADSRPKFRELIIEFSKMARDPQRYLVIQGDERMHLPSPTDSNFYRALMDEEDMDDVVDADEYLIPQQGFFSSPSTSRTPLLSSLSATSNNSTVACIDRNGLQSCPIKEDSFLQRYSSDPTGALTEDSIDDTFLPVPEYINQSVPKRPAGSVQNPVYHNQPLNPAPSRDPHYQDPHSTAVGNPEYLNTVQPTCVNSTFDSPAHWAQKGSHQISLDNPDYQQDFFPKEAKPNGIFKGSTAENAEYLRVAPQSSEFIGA
Method: (§1) Enzyme Inhibitory Activity of Test Compound on EGFR and HER2
(§2) EGFR and HER2 purified from an insect cell expression system, and a biotinylated substrate (synthetic peptide of glutamic acid:tyrosine=4:1) were added to a 384-well plate with ATP added thereto, and an enzyme reaction was performed at room temperature. After completion of the enzyme reaction, an anti-phosphorylated tyrosine antibody labeled with europium and streptavidin labeled with alphycocyanine were added, and a phosphorylated tyrosine residue was quantified by a time resolution fluorescence method.
(§3) A test compound was adjusted to 10 mM using DMSO.
(§4) Further, using 10% DMSO solution, a 1 mM solution was prepared, and this was regarded as a maximum concentration point.
(§5) As a dilution series, a 4-fold dilution series was prepared to a 10 stage.
(§6) As a buffer, TBS containing 10 mM MgCl2, 5 mM MnCl2, 0.2 mM Na3VO4, and 0.1% BSA was used.
(§7) As EGFR and HER2 enzymes, those purified from an insect cell expression system were purchased from Carna Biosciences, Inc.
An EGFR enzyme solution was adjusted to 250 ng/ml using a buffer.
(§8) As a substrate, biotinylated poly-Glu-Tyr (4:1, manufactured by CISbio) was used. A concentration was adjusted to 3.125 μg/ml using the above buffer.
An ATP concentration on study of the EGFR enzyme was adjusted to 125 μM using the buffer.
(§9) For preparing a detection reagent, TBS containing 30 mM EDTA, 0.8M KF and 0.1% BSA was used.
(§10) An anti-phosphorylated tyrosine antibody labeled with europium, PT-66K (CISbio) was adjusted to 195 ng/ml, and streptavidin labeled with alphycocyanine, SA-XL (CISbio) was adjusted to 5 μg/ml.
(§11) As an assay plate, a 384-well plate was used. Per one well, 1.1 μl of a test compound, 4 μl of a substrate solution, and 4 μl of an enzyme solution were added, and 2 μl of an ATP solution was added to initiate an enzyme reaction. The enzyme reaction was performed at room temperature for 60 minutes, and 10 μl of a detection reagent was added to complete the reaction. One hour after completion of the reaction, time resolution fluorescent measurement was performed.

[2] = biological target: T2, HER2 (Homo sapiens, UniProt P04626); experiment: Enzyme inhibitory activity on HER2 (time resolution fluorescence, biotinylated poly-Glu-Tyr substrate); type: biochemical
T2 construct: purchased Carna Biosciences, Inc; host or cells: insect cell expression system
T2 sequence (P04626 23-1255): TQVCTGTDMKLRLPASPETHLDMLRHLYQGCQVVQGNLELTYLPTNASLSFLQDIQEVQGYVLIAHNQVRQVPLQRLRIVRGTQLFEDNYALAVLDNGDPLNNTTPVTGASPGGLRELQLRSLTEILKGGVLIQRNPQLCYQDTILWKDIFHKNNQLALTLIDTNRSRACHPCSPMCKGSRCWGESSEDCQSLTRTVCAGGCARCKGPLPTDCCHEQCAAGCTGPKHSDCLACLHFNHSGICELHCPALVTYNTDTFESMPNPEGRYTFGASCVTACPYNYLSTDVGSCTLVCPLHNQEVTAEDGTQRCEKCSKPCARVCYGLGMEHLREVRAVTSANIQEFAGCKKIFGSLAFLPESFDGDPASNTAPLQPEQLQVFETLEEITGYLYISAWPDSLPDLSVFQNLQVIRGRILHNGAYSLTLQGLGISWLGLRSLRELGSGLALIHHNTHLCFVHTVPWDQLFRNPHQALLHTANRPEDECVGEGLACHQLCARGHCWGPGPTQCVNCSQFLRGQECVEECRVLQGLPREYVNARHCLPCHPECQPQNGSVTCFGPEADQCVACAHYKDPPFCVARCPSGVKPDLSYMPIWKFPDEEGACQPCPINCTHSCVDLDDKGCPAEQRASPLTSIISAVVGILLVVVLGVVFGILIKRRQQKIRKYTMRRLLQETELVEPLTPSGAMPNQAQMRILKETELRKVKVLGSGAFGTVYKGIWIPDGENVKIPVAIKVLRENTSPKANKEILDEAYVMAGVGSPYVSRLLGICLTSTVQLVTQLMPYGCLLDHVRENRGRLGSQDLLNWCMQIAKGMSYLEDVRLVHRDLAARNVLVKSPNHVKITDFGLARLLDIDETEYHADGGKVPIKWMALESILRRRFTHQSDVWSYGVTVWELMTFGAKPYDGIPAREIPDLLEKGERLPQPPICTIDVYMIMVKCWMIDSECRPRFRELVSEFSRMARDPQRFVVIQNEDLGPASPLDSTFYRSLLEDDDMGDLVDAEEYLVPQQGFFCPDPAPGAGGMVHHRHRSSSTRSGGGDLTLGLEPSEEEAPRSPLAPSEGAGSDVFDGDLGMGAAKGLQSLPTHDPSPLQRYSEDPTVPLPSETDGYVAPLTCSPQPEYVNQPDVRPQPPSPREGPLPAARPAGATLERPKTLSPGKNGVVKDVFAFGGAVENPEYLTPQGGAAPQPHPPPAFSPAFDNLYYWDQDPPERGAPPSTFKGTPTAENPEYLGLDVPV
Method: as §1, §2, §3, §4, §5, §6, §7
HER2 kinase was adjusted to 1000 ng/ml using a buffer.
as §8
An ATP concentration on study of the HER2 enzyme was adjusted to 290 μM.
as §9, §10, §11

[3] = test system: BT-474; experiment: In vitro cell proliferation inhibition, WST assay; type: cell-based, human; details: BT-474 cells, cultured for 3 days, read-out: BT-474 (nM) proliferation inhibitory activity (IC50 value)
Method: Test of In Vitro Cell Proliferation Inhibition of Test Compound
As a human-derived cancer cell strain, BT-474 was used. Cells were all cultured in a 37° C., 5% CO2 incubator in a medium in which 10% bovine fetal serum (ICN) and 50 units ml penicillin/60 μg/ml streptomycin solution (GIBCO) were added to Dulbecco's Modified Essential Medium (DMEM, Nacalai Tesque, Inc).

[4] = enzyme reaction at room temperature for 60 minutes
[5] = EGFR purified from insect cell expression system, ATP solution 125 μM, room temperature, 60 minutes
[6] = HER2 purified from insect cell expression system, ATP solution 290 μM, room temperature, 60 minutes

SMILES	IC50 [1, 4]	IC50 [2, 4]	IC50 ([3]; Homo sapiens, BT-474, 72 h)	IC50 [1, 5]	IC50 [2, 6]	IC50 [3]
CC#C/C(=N\OCCNC(C)COC)c1ccc2ncnc(Nc3ccc(OCc4ccccn4)c(Cl)c3)c2c1 (stereo not drawn) [VIII-130]	8.1 nM	5.2 nM	50 nM			
CC#C/C(=N\OC[C@@H](COC)NC)c1ccc2ncnc(Nc3ccc(S(=O)(=O)c4ccccc4)cc3)c2c1 [VIII-205]	17 nM	13 nM	31 nM			
CC#C/C(=N\OC[C@H]1CNC[C@H](C)O1)c1ccc2ncnc(Nc3ccc(OCc4cccc(F)c4)c(Cl)c3)c2c1 [VIII-117]				47 nM	53 nM	20 nM
CC#C/C(=N\OCCN(CC)CCOC)c1ccc2ncnc(Nc3ccc(OCc4cccc(F)c4)c(Cl)c3)c2c1 [VIII-65]				97 nM	98 nM	30 nM
CC#C/C(=N\OCCNCCN(C)S(C)(=O)=O)c1ccc2ncnc(Nc3ccc4c(cnn4Cc4cccc(F)c4)c3)c2c1 [VIII-186]	19 nM	26 nM	29 nM			
CC#C/C(=N\OCCNCC(F)(F)F)c1ccc2ncnc(Nc3ccc(OCc4cccc(F)c4)c(Cl)c3)c2c1 [VIII-57]				301 nM	303 nM	15 nM
CC#C/C(=N\OCC(N)=O)c1ccc2ncnc(Nc3ccc(OCc4cccc(F)c4)c(Cl)c3)c2c1 [VIII-223]	253 nM	217 nM	6 nM			
CC#C/C(=N\O[C@H]1CN[C@H](CO)C1)c1ccc2ncnc(Nc3ccc(OCc4ccccn4)c(Cl)c3)c2c1 [VIII-161]	14 nM	15 nM	49 nM			
CC#C/C(=N\OC[C@H]1CNCCN1)c1ccc2ncnc(Nc3ccc(OCc4cccc(F)c4)c(Cl)c3)c2c1 [VIII-105]				14 nM	14 nM	10 nM
CC#C/C(=N\OCCN1CCNC(=O)C1)c1ccc2ncnc(Nc3ccc(OCc4cccc(F)c4)c(Cl)c3)c2c1 [VIII-94]			26 nM	213 nM	150 nM	
CC#C/C(=N\OCCNC)c1ccc2ncnc(Nc3ccc(OCc4ccccn4)c(Cl)c3)c2c1 [VIII-182]	4.7 nM	7.3 nM	20 nM			
CC#C/C(=N\OC[C@@H](COC)NC)c1ccc2ncnc(Nc3ccc(OCc4cccc(F)c4)c(Cl)c3)c2c1 [VIII-56]				7.9 nM	13.8 nM	14 nM
CC#C/C(=N\OC[C@H]1CNCC(=O)N1)c1ccc2ncnc(Nc3ccc(OCc4cccc(F)c4)c(Cl)c3)c2c1 [VIII-111]				37 nM	55 nM	15 nM
CC#C/C(=N\OC[C@@H]1CCCN1C)c1ccc2ncnc(Nc3ccc(OCc4ccccn4)c(Cl)c3)c2c1 [VIII-154]	9.5 nM	9 nM	31 nM			
CC#C/C(=N\OCCN1CCC(N)CC1)c1ccc2ncnc(Nc3ccc(OCc4cccc(F)c4)c(Cl)c3)c2c1 [VIII-98]				21 nM	21 nM	65 nM
CC#C/C(=N\OCCN1CC[C@@H](OC(N)=O)C1)c1ccc2ncnc(Nc3ccc4c(cnn4Cc4cccc(F)c4)c3)c2c1 [VIII-193]	14 nM	15 nM	25 nM			
CC#C/C(=N\OC[C@@H]1COCCN1)c1ccc2ncnc(Nc3ccc(S(=O)(=O)c4ccccc4)cc3)c2c1 [VIII-207]	21 nM	17 nM	68 nM			
COCC#C/C(=N\OC[C@@H]1COCCN1)c1ccc2ncnc(Nc3ccc(S(=O)(=O)c4ccccc4)cc3)c2c1 [VIII-209]	38 nM	30 nM	19 nM			
COCC#C/C(=N\OCCN1CCCC1)c1ccc2ncnc(Nc3ccc(OCc4cccc(F)c4)c(Cl)c3)c2c1 [VIII-124]	40 nM	38 nM	14 nM			
CC#C/C(=N\OC[C@H]1CNCC(=O)N1)c1ccc2ncnc(Nc3ccc(OCc4ccccn4)c(Cl)c3)c2c1 [VIII-171]	9.9 nM	11.7 nM	52 nM			
CC#CC(=NOCC1CNCCN1)c1ccc2ncnc(Nc3ccc(OCc4cccc(F)c4)c(Cl)c3)c2c1 (stereo not drawn) [VIII-103]			11 nM	3.9 nM	5.6 nM	

SMILES	IC50 [1, 4]	IC50 [2, 4]	IC50 ([3]; Homo sapiens, BT-474, 72 h)	IC50 [1, 5]	IC50 [2, 6]	IC50 [3]
CC#C/C(=N\OC[C@@H]1COCCN1CC#N)c1ccc2ncnc(Nc3ccc(OCc4cccc(F)c4)c(Cl)c3)c2c1 [VIII-104]				238 nM	202 nM	60 nM
CC#C/C(=N\OCCNCCNC(C)=O)c1ccc2ncnc(Nc3ccc(OCc4ccccn4)c(Cl)c3)c2c1 [VIII-134]	7.1 nM	7.4 nM	14 nM			
CC#C/C(=N\OC[C@@H](COC)NC)c1ccc2ncnc(Nc3ccc(OCc4ccccn4)c(Cl)c3)c2c1 [VIII-131]	5.8 nM	4.4 nM	14 nM			
CC#CC(=NOCC1CCC(=O)N1)c1ccc2ncnc(Nc3ccc(OCc4cccc(F)c4)c(Cl)c3)c2c1 (stereo not drawn) [VIII-78]				111 nM	410 nM	35 nM
CC#C/C(=N\OCCNCCNC(C)=O)c1ccc2ncnc(Nc3ccc4c(cnn4Cc4cccc(F)c4)c3)c2c1 [VIII-184]	10 nM	7 nM	9 nM			
CC#C/C(=N\OC[C@@H]1CCCN1CC#N)c1ccc2ncnc(Nc3ccc(OCc4cccc(F)c4)c(Cl)c3)c2c1 [VIII-73]				275 nM	199 nM	12 nM
CC#C/C(=N\OC[C@H]1NC(=O)O[C@@H]1C)c1ccc2ncnc(Nc3ccc(OCc4cccc(F)c4)c(Cl)c3)c2c1 [VIII-76]			12 nM	162 nM	216 nM	
CC#C/C(=N\OC1CNC1)c1ccc2ncnc(Nc3ccc(OCc4cccc(F)c4)c(Cl)c3)c2c1 [VIII-68]				19 nM	25 nM	41 nM
CC#C/C(=N\OCCCNC)c1ccc2ncnc(Nc3ccc(OCc4cccc(F)c4)c(Cl)c3)c2c1 [VIII-67]				16 nM	14 nM	32 nM
CC#CC(=NOCC1NC(=O)OC1C)c1ccc2ncnc(Nc3ccc(OCc4cccc(F)c4)c(Cl)c3)c2c1 (stereo not drawn) [VIII-77]				217 nM	246 nM	11 nM
CNCCO/N=C(\C#CCOC)c1ccc2ncnc(Nc3ccc4c(cnn4Cc4cccc(F)c4)c3)c2c1 [VIII-199]	6.3 nM	5.2 nM	33 nM			
CC#CC(=NOCC1CN(C)CCN1C)c1ccc2ncnc(Nc3ccc(OCc4ccccn4)c(Cl)c3)c2c1 (stereo not drawn) [VIII-172]	14 nM	16 nM	70 nM			
CC#C/C(=N\OCCNC1CC1)c1ccc2ncnc(Nc3ccc(OCc4cccc(F)c4)c(Cl)c3)c2c1 [VIII-46]			12 nM	82 nM	104 nM	
Fc1cccc(COc2ccc(Nc3ncnc4ccc(C(=NOCCN5CCOCC5)c5ccccc5)cc34)cc2Cl)c1 [VIII-13]			64 nM	300 nM	888 nM	
CC#C/C(=N\OCCCNC)c1ccc2ncnc(Nc3ccc(OCc4ccccn4)c(Cl)c3)c2c1 [VIII-147]	13 nM	13 nM	25 nM			
CC#C/C(=N\OC[C@H]1CNCCO1)c1ccc2ncnc(Nc3ccc(OCc4cccc(F)c4)c(Cl)c3)c2c1 [VIII-114]				57 nM	69 nM	37 nM
CC#C/C(=N\OCCNCCNC(C)=O)c1ccc2ncnc(Nc3ccc(OCc4cccc(F)c4)c(Cl)c3)c2c1 [VIII-47]				12 nM	23 nM	4 nM
CC#C/C(=N\OCCNC1CCN(C(C)=O)CC1)c1ccc2ncnc(Nc3ccc(OCc4cccc(F)c4)c(Cl)c3)c2c1 [VIII-61]				30 nM	24 nM	11 nM
CC/C(=N\OCCNC)c1ccc2ncnc(Nc3ccc(OCc4cccc(F)c4)c(Cl)c3)c2c1 [VIII-20]			37 nM	29 nM	31 nM	
CC#C/C(=N\OCCNC1CCCCC1)c1ccc2ncnc(Nc3ccc(OCc4cccc(F)c4)c(Cl)c3)c2c1 [VIII-28]				162 nM	167 nM	72 nM
